Where two headings read alike, the source gives them in different places.
Target: T1, mutant MGL (Homo sapiens, UniProt Q99685, L169S/L176S)
T1 sequence (Q99685 1-303 L169S/L176S): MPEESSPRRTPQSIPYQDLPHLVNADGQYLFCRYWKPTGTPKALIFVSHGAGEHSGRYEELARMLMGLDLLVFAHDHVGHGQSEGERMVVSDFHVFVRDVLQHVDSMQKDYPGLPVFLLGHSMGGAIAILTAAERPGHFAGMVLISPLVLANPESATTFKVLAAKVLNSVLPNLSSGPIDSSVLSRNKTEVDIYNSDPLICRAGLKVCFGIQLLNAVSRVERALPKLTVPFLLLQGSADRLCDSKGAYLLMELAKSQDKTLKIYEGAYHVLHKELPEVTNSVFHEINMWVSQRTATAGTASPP
Assay: MGL ThermoFluor assay - mutant
Assay type: binding
Settings: read-out: MGL mutant ThermoFluor Kd

[1] = ThermoFluor thermal stability binding assay
[2] = ThermoFluor concentration-response

SMILES | Kd [1] [nM] | Kd [2] [nM]
CS(=O)(=O)N1CCCc2cc(C(=O)N3CC(N4CCN(C(=O)c5ccccc5)CC4)C3)ccc21 [Cpd 363, 1-(Methylsulfonyl)-6-({3-[4-(phenylcarbonyl)piperazin-1-yl]azetidin-1-yl}carbonyl)-1,2,3,4-tetrahydroquinoline] | 6760 | –
O=C(c1ccc2c(c1)CCCN2c1ccccc1)N1CC(N2CCN(C(=O)c3nccs3)CC2)C1 [Cpd 372, 1-Phenyl-6-({3-[4-(1,3-thiazol-2-ylcarbonyl)piperazin-1-yl]azetidin-1-yl}carbonyl)-1,2,3,4-tetrahydroquinoline] | 49.4 | –
O=C(c1ccc2c(c1)CCCN2c1ccc(C(F)(F)F)cc1)N1CC(N2CCN(C(=O)c3nccs3)CC2)C1 [Cpd 373, 6-({3-[4-(1,3-Thiazol-2-ylcarbonyl)piperazin-1-yl]azetidin-1-yl}carbonyl)-1-[4-(trifluoromethyl)phenyl]-1,2,3,4-tetrahydroquinoline] | 5.5 | –
O=C(c1ccc2c(c1)CCCN2c1cccc(C(F)(F)F)c1)N1CC(N2CCN(C(=O)c3nccs3)CC2)C1 [Cpd 374, 6-({3-[4-(1,3-Thiazol-2-ylcarbonyl)piperazin-1-yl]azetidin-1-yl}carbonyl)-1-[3-(trifluoromethyl)phenyl]-1,2,3,4-tetrahydroquinoline] | 2.2 | –
O=C(c1ccc2c(c1)CCCN2c1ncccn1)N1CC(N2CCN(C(=O)c3nccs3)CC2)C1 [Cpd 375, 1-Pyrimidin-2-yl-6-({3-[4-(1,3-thiazol-2-ylcarbonyl)piperazin-1-yl]azetidin-1-yl}carbonyl)-1,2,3,4-tetrahydroquinoline] | 229 | –
CC(=O)N1c2ccc(Br)cc2CCC1C(=O)N1CC(N2CCN(C(=O)c3nccs3)CC2)C1 (centres unmarked) [Cpd 376, 1-Acetyl-6-bromo-2-({3-[4-(1,3-thiazol-2-ylcarbonyl)piperazin-1-yl]azetidin-1-yl}carbonyl)-1,2,3,4-tetrahydroquinoline] | 7140 | –
CC(=O)N1c2ccc(Br)cc2CCC1C(=O)N1CC(N2CCN(C(=O)c3cscn3)CC2)C1 (centres unmarked) [Cpd 377] | > 76700 | –
CC(=O)N1c2ccc(Br)cc2CCC1C(=O)N1CC(N2CCN(C(=O)c3ccccc3)CC2)C1 (centres unmarked) [Cpd 378] | > 76700 | –
O=C(c1ccccc1)N1CCN(C2CN(C(=O)c3ccc(OCc4cccc(OC(F)(F)F)c4)cc3)C2)CC1 [Cpd 393] | 90.9 | –
O=C(c1ccccc1)N1CCN(C2CN(C(=O)c3ccc(OCc4ccc(S(=O)(=O)N5CCOCC5)cc4)cc3)C2)CC1 [Cpd 394] | 846 | –
O=C(c1ccccc1)N1CCN(C2CN(C(=O)c3ccc(OCc4ccc(C(F)(F)F)c(F)c4)cc3)C2)CC1 [Cpd 395] | 159 | –
O=C(c1ccccc1)N1CCN(C2CN(C(=O)c3ccc(OCc4ccncc4)cc3)C2)CC1 [Cpd 396] | 4270 | –
O=C(c1ccccc1)N1CCN(C2CN(C(=O)c3ccc(OCc4ccc(Cl)c(Cl)c4)c(Cl)c3)C2)CC1 [Cpd 399] | 40.8 | –
O=C(c1ccc(OCc2ccc(Cl)c(Cl)c2)c(Cl)c1)N1CC(N2CCN(C(=O)c3nccs3)CC2)C1 [Cpd 404] | 1.7 | –
O=C(c1ccc(OCc2cccc(Cl)c2Cl)c(F)c1)N1CC(N2CCN(C(=O)c3nccs3)CC2)C1 [Cpd 405, 1-[1-({4-[(2,3-Dichlorobenzyl)oxy]-3-fluorophenyl}carbon-yl)azetidin-3-yl]-4-(1,3-thiazol-2-ylcarbonyl)piperazine] | 2 | –
O=C(c1ccccc1)N1CCN(C2CN(C(=O)c3ccc(OCc4ccncc4)c(Cl)c3)C2)CC1 [Cpd 408] | 1940 | –
O=C(c1ccccc1)N1CCN(C2CN(C(=O)c3ccc(OCc4cccnc4)c(Cl)c3)C2)CC1 [Cpd 409] | 2030 | –
O=C(c1ccc(SCc2cccc(Cl)c2)cc1)N1CC(N2CCN(C(=O)c3nccs3)CC2)C1 [Cpd 412, 1-[1-({4-[(3-Chlorobenzyl)sulfanyl]phenyl}carbonyl)azetidin-3-yl]-4-(1,3-thiazol-2-ylcarbonyl)piperazine] | – | 10
O=C(c1ccc(SCc2cccc(Cl)c2Cl)cc1)N1CC(N2CCN(C(=O)c3nccs3)CC2)C1 [Cpd 413, 1-[1-({4-[(2,3-Dichlorobenzyl)sulfanyl]phenyl}carbonyl)azetidin-3-yl]-4-(1,3-thiazol-2-ylcarbonyl)piperazine] | – | 2
O=C(c1ccc(SCc2ccc(Cl)c(Cl)c2)cc1)N1CC(N2CCN(C(=O)c3nccs3)CC2)C1 [Cpd 414, 1-[1-({4-[(3,4-Dichlorobenzyl)sulfanyl]phenyl}carbonyl)azetidin-3-yl]-4-(1,3-thiazol-2-ylcarbonyl)piperazine] | – | 25
O=C(c1ccc(SCc2ccc(Cl)cc2)cc1)N1CC(N2CCN(C(=O)c3nccs3)CC2)C1 [Cpd 415] | – | 8
O=C(c1ccccc1)N1CCN(C2CN(C(=O)c3ccc(SCc4ccc(Cl)c(Cl)c4)cc3)C2)CC1 [Cpd 417] | – | 66.7
O=C(c1ccccc1)N1CCN(C2CN(C(=O)c3ccc(SCc4ccc(Cl)cc4)cc3)C2)CC1 [Cpd 418] | – | 500
O=C(c1ccc(Oc2ccc(Cl)cc2)cc1)N1CC(N2CCN(C(=O)c3nccs3)CC2)C1 [Cpd 420, 1-(1-{[4-(4-Chlorophenoxy)phenyl]carbonyl}azetidin-3-yl)-4-(1,3-thiazol-2-ylcarbonyl)piperazine] | – | 5

SMILES | Kd [1] [nM] | Kd [2] [nM]
O=C(c1ccc(Oc2cccc(Cl)c2)cc1)N1CC(N2CCN(C(=O)c3nccs3)CC2)C1 [Cpd 421, 1-(1-{[4-(3-Chlorophenoxy)phenyl]carbonyl}azetidin-3-yl)-4-(1,3-thiazol-2-ylcarbonyl)piperazine] | – | 4
O=C(c1ccccc1)N1CCN(C2CN(C(=O)c3ccc(Oc4ccc(Cl)cc4)cc3)C2)CC1 [Cpd 425] | – | 200
O=C(c1ccccc1)N1CCN(C2CN(C(=O)c3ccc(Oc4cccc(Cl)c4)cc3)C2)CC1 [Cpd 426] | – | 250
O=C(c1ccccc1)N1CCN(C2CN(C(=O)c3ccc(O[C@H]4CCN(C(=O)N5CCCC5)C4)c(I)c3)C2)CC1 [Cpd 450, 1-{1-[(3-Iodo-4-{[(3S)-1-(pyrrolidin-1-ylcarbonyl)pyrrolidin-3-yl]oxy}phenyl)carbonyl]azetidin-3-yl}-4-(phenylcarbonyl)piperazine] | – | 50
O=C(c1ccc(O[C@H]2CCN(C(=O)N3CCCC3)C2)c(I)c1)N1CC(N2CCN(C(=O)c3nccs3)CC2)C1 [Cpd 452] | – | 200
O=C(c1ccc(CSc2cccc(Cl)c2)cc1)N1CC(N2CCN(C(=O)c3nccs3)CC2)C1 [Cpd 454] | – | 14.7
O=C(c1ccc(CNc2cccc(Cl)c2)cc1)N1CC(N2CCN(C(=O)c3nccs3)CC2)C1 [Cpd 455] | – | 8.5
O=C(c1ccccc1)N1CCN(C2CN(C(=O)c3ccccc3C3CCNC3)C2)CC1 (centres unmarked) [Cpd 456, 1-(Phenylcarbonyl)-4-{1-[(2-pyrrolidin-3-ylphenyl)carbonyl]azetidin-3-yl}piperazine] | – | > 76700
O=C(c1ccccc1)N1CCN(C2CN(C(=O)c3ccc(Cc4ccccc4)cc3)C2)C(CO)C1 (centres unmarked) [Cpd 457, [1-{1-[(4-Benzylphenyl)carbonyl]azetidin-3-yl}-4-(phenylcarbonyl)piperazin-2-yl]methanol] | – | 4820
O=C(c1ccccc1)N1CCN(C2CN(C(=O)c3ccc(-c4ccccc4)cc3)C2)C(CO)C1 (centres unmarked) [Cpd 458, {1-[1-(Biphenyl-4-ylcarbonyl)azetidin-3-yl]-4-(phenylcarbonyl)piperazin-2-yl}methanol] | – | 6670
O=C(c1ccc(Cc2ccccc2)cc1)N1CC(N2CCN(C(=O)c3ccccc3)C(CO)C2)C1 (centres unmarked) [Cpd 459, [4-{1-[(4-Benzylphenyl)carbonyl]azetidin-3-yl}-1-(phenylcarbonyl)piperazin-2-yl]methanol] | – | 3330
O=C(c1ccc(-c2ccccc2)cc1)N1CC(N2CCN(C(=O)c3ccccc3)C(CO)C2)C1 (centres unmarked) [Cpd 460, {4-[1-(Biphenyl-4-ylcarbonyl)azetidin-3-yl]-1-(phenylcarbonyl)piperazin-2-yl}methanol] | – | 9100
CSc1ccc(C(=O)N2CC(N3CCN(C(=O)c4ccccc4)CC3)C2)cc1 [Cpd 470, 1-(1-{[4-(Methylsulfanyl)phenyl]carbonyl}azetidin-3-yl)-4-(phenylcarbonyl)piperazine] | – | 2940
CC(=O)Oc1ccc(C(=O)N2CC(N3CCN(C(=O)c4nccs4)CC3)C2)cc1 [Cpd 471, 4-({3-[4-(1,3-Thiazol-2-ylcarbonyl)piperazin-1-yl]azetidin-1-yl}carbonyl)phenyl acetate] | – | 2500
CS(=O)(=O)c1ccc(C(=O)N2CC(N3CCN(C(=O)c4ccccc4)CC3)C2)cc1 [Cpd 472, 1-(1-{[4-(Methylsulfonyl)phenyl]carbonyl}azetidin-3-yl)-4-(phenylcarbonyl)piperazine] | – | 6670
O=C(c1ccccc1)N1CCN(C2CN(C(=O)c3cccnc3Oc3ccc(Cl)cc3)C2)CC1 [Cpd 474, 1-(1-{[2-(4-Chlorophenoxy)pyridin-3-yl]carbonyl}azetidin-3-yl)-4-(phenylcarbonyl)piperazine] | – | 5000
O=C(c1nccs1)N1CCN(C2CN(C(=O)C3CCC(c4ccccc4)CC3)C2)CC1 (centres unmarked) [Cpd 475] | – | 25
O=C(C#Cc1ccccc1)N1CC(N2CCN(C(=O)c3nccs3)CC2)C1 [Cpd 477] | – | 2000
O=C(c1ccccc1)C1CCC(C(=O)N2CC(N3CCN(C(=O)c4cscn4)CC3)C2)CC1 (centres unmarked) [Cpd 478] | – | 2000
Cc1ccc(Sc2ncccc2C(=O)N2CC(N3CCN(C(=O)c4cscn4)CC3)C2)cc1 [Cpd 479] | – | 6670
CC(=O)Nc1nc(C(=O)N2CCN(C3CN(C(=O)c4ccc(-c5ccccc5)cc4)C3)CC2)cs1 [Cpd 480] | > 76700 | –
O=C(c1ccccc1)N1CCN(C2CN(C(=O)c3ccc(OCc4cccc(Cl)c4Cl)c(F)c3)C2)CC1 [Cpd 483] | 20 | –
O=C(c1ccccc1)N1CCN(C2CN(C(=O)c3ccc(NCc4ccc5ccccc5c4)cc3)C2)CC1 [Cpd 491, N-(Naphthalen-2-ylmethyl)-4-({3-[4-(phenylcarbonyl)piperazin-1-yl]azetidin-1-yl}carbonyl)aniline] | – | 100

Reference: patent US8362000B2, “Azetidinyl diamides as monoacylglycerol lipase inhibitors” (Janssen Pharmaceutica NV, priority 2009, dated 2013)
